Experimental data: patent US12187663B2, “Thyromimetics with a biphenylmethane scaffold and their use” (INTERNATIONAL SOCIETY FOR DRUG DEVELOPMENT S.R.L., priority 2019, dated 2025)

Assays:
HepG2 cells = assay: Cell viability MTT assay; format: cell-based; conditions: 1-10 μM, 24 h
Experimental: HepG2 cells were seeded in a 96-well plate (Corning, USA) at a density of 1.0×10^4 cells/well with DMEM (200 μl/well), and then incubated for 24 h according to routine procedure. After being treated with test compounds (1-10 μM) and incubated for 24 h (8 wells for each sample), 20 μL/well MTT (5 g/L) was added to each well. The medium was then removed after 4 h incubation and 100 μL/well sodium dodecyl sulfate (SDS)-HCl solution was added to dissolve the reduced formazan product after incubation for 16 h at 37° C. Finally, the plate was read at 570 nm, using a micro-plate reader (Bio-Rad 680, USA).

[1] = Panel of early-toxicity assays (in vitro ADME-TOX profiling); conditions: 10 μM of each compound
Experimental: FIG. 5. ADME-TOX profiling In order to assess the ADME-TOX profile of new synthetized compounds a full panel of in vitro assays was performed. Cytotoxic effects were evaluated on 4 different cell lines (U2-OS, HEK293, hTERT, MCF-7) at 24 h and 48 h after treatment with new compounds. Cardiac toxicity was assessed evaluating the inhibition effect of compounds on the hERG ion-channel, an important anti-target involved in heart functionalities. Metabolic interference was evaluated testing inhibitory effects of new compounds on four isoforms of CYP450 (CYP2C9, CYP2C19, CYP2D6, CYP3A4). In order to assess off-target liabilities, the inhibitory effects have been assessed against several well-known off-targets. […] The data were collected and analyzed in the form of a traffic-light system using criteria shown below.
Test compounds (20 nL of 10 mM top concentration in 100% v/v DMSO), positive control (PC; Valinomycin with final concentration of 10 μM and 0.1% v/v DMSO) and NC (final 0.1% v/v DMSO) were added in an empty polystyrene 384-well cell culture microtiter plate using the Echo 550 Liquid Handler and stored at room temperature before cell's seeding. […] At 24 h and 48 h post-treatment, 20 μL/well of CTG detection mix were added, and plates were read using an EnVision Multilabel 2103 Reader after a 10-min incubation in the dark. […]

SMILES | cell viability (cell death with respect to control) (HepG2 cells) | early-toxicity / liability profile (% inhibition heat map) [1]
Cc1cc(OCC(=O)O)cc(C)c1Cc1ccc(N)c(C(C)C)c1 [IS25, 2-(4-(4-amino-3-isopropylbenzyl)-3,5-dimethylphenoxy)acetic acid] | did not significantly (p<0.05) cause cell death | safer profile
CC(=O)Nc1ccc(Cc2c(C)cc(OCC(=O)O)cc2C)cc1C(C)C [TG68, 2-(4-(4-acetamido-3-isopropylbenzyl)-3,5-dimethylphenoxy)acetic acid] | did not significantly (p<0.05) cause cell death | safer profile
